Data reported in patent US20230223113A1, “Methods and Systems for Rapid Antimicrobial Susceptibility Tests” (The Regents of the University of California, priority 2020, published 2023).
Where a name gives a salt, the structure may show the parent alone.

Legend:
[1] = tested on: Pseudomonas aeruginosa (strain PA14 wild type); experiment: Dose-response growth curves (OD600 after 24 h) to identify the minimum inhibitory concentration; assay type: cell-based; details: for MIC: Pseudomonas aeruginosa, P. aeruginosa PA14, the stated concentration is 'just below' the MIC
Method: (§1) Optical density at 600 nm (OD600) to identify the minimum inhibitory concentration (MIC) of A) carbenicillin, B) rifampicin, and C) gentamicin for Pseudomonas aeruginosa, and D) gentamicin for Escherichia coli in accordance with an embodiment is illustrated in FIGS. 5A-5D. The P. aeruginosa strain, PA14 used in some embodiments has differing susceptibility to carbenicillin [+C] and rifampicin [+R]. Several embodiments refer to the antibiotic treatments that are performed with 50 μg/mL and 400 μg/mL of carbenicillin and rifampicin, respectively as the AST dataset. These concentrations are just below the respective minimum inhibitory concentrations (MICs) for these antibiotics in P. aeruginosa, as shown in FIGS. 5A and 5B. OD600 of a P. aeruginosa cell culture at indicated growth times after adjustment to OD at 0.5 at 0 h, A) without antibiotic treatment, B) with 50 μg/mL carbenicillin introduced at 0 h, and C) with 400 μg/mL rifampicin introduced at 0 h in accordance with an embodiment of the invention is illustrated in FIGS. 6A-6C.
(§2) Pseudomonas aeruginosa (strain PA14 wild type) and Escherichia coli (strain MC4100, K-12, F-araD139Δ(argF-lac)U169 rspL150 relA1 fIbB5301 fruA25 deoC1 ptsF25) cultures were obtained by first streaking from a frozen culture stock onto LB Lennox agar (IBI Scientific) plates and incubated at 37° C. for 24 h. Individual colonies from these plates were used to inoculate 100 mL of LB in triplicate, and subsequently grown for 18 h at 37° C. and shaking at 230 rpm. The 18 h cultures were centrifuged at 5000 rpm for 5 minutes, then resuspended in fresh LB to reach an optical density at 600 nm (OD600) of 0.50 as measured by a BioChrom Colourwave CO7500 Colorimeter.
Dose-Response Curves: Carbenicillin disodium salt, gentamicin sulfate, and rifampicin stock solutions were prepared to a final concentration of 10 mg/mL in water for the former two and 20% (v/v) DMSO/H2O for the latter. These stock solutions were added into 180 μL of E. coli or P. aeruginosa resuspension in a 96-well plate such that 9 separate 10-fold dilutions of each antibiotic starting at 1000 μg/mL were achieved. Vehicle controls using pure water for carbenicillin and gentamicin and 20% (v/v) DMSO/H2O for rifampicin were also created in the same 96-well plate. These plates were then incubated at 37° C. for 24 h with 230 rpm shaking, after which OD600 measurements were taken with a SpectraMax M2 Plate Reader.

[2] = tested on: P. aeruginosa lysate; experiment: SERS spectra of cell lysate after antibiotic exposure, VAE latent space analysis; assay type: cell-based, Pseudomonas aeruginosa
Method: The VAE space from analysis of the AST dataset in accordance with many embodiments provide clustering of the different treatment classes. VAE space of AST spectra from untreated [−−] P. aeruginosa lysate (0.5 h/2 h), 50 μg/mL carbenicillin treated [+C] P. aeruginosa lysate (0.5 h/2 h), 400 μg/mL rifampicin treated [+R] P. aeruginosa lysate (0.5 h/2 h) in accordance with an embodiment of the invention is illustrated in FIG. 7A. […] Some embodiments provide that larger relative VAE 1 values can be observed for 30 minute treatment times for all treatment classes as compared to 2 hour exposure. This is consistent with OD600 measurements indicating cell recovery after 2 hour in FIGS. 6A-6C.
Many embodiments provide VAE performance on differentiating spectra from multiple bacterial species, a different antibiotic, time points, and dosages. SERS spectra from cellular lysate with varying dose and temporal response of P. aeruginosa and E. coli when exposed to gentamicin are analyzed similarly as the AST dataset in several embodiments. When analyzing the SERS spectra from E. coli and P. aeruginosa with the VAE method, differentiation of P. aeruginosa lysate data at concentrations at about 0.1 μg/mL, an order of magnitude below the MIC, can be observed in accordance with some embodiments. […]

[3] = tested on: E. coli lysate; experiment: as above; assay type: cell-based, Escherichia coli
Method: Many embodiments provide VAE performance on differentiating spectra from multiple bacterial species, a different antibiotic, time points, and dosages. SERS spectra from cellular lysate with varying dose and temporal response of P. aeruginosa and E. coli when exposed to gentamicin are analyzed similarly as the AST dataset in several embodiments. When analyzing the SERS spectra from E. coli and P. aeruginosa with the VAE method, differentiation of P. aeruginosa lysate data at concentrations at about 0.1 μg/mL, an order of magnitude below the MIC, can be observed in accordance with some embodiments. FIG. 9A illustrates VAE latent space analysis of SERS spectra of dose response of P. aeruginosa with analysis of 0, 0.1, 0.5, 1, and 10 μg/mL gentamicin dosed lysate respectively in accordance with an embodiment. In several embodiments, lysate from P. aeruginosa exposed to 10 μg/mL gentamicin (10×MIC) can be analyzed with VAE method and differentiated from control data in the VAE space at about 20 minute after initial exposure. The short temporal response time in accordance with some embodiments is much earlier than reported 2 hour response time for SERS AST. FIG. 9B illustrates VAE latent spaces of temporal response of P. aeruginosa with lysate processed after 0, 5, 10, 20, and 40 minutes of 10 μg/mL gentamicin dosage respectively in accordance with an embodiment. […]

[4] = tested on: P. aeruginosa cell culture; experiment: OD600 of cell culture over time of antibiotic exposure after adjustment to OD 0.5; assay type: cell-based, Pseudomonas aeruginosa; details: 50 μg/mL carbenicillin, about 2 hour exposure
Method: as §1, with “OD600 of a P. aeruginosa cell culture at indicated growth times after adjustment to OD at 0.5 at 0 h, A) without antibiotic treatment, B) with 50 μg/mL carbenicillin introduced at 0 h, and C) with 400 μg/mL rifampicin introduced at 0 h in accordance with an embodiment of the invention is illustrated in FIGS. 6A-6C.” left out
as §2, with “Individual colonies from these plates were used to inoculate 100 mL of LB in triplicate, and subsequently grown for 18 h at 37° C. and shaking at 230 rpm.” left out, “Colorimeter. […]” for “Colorimeter.”

CO[C@H]1/C=C/O[C@@]2(C)Oc3c(C)c(O)c4c(O)c(c(/C=N/N5CCN(C)CC5)c(O)c4c3C2=O)NC(=O)/C(C)=C\C=C\[C@H](C)[C@H](O)[C@@H](C)[C@@H](O)[C@@H](C)[C@H](OC(C)=O)[C@@H]1C [rifampicin]
MIC [1]: > 400 µg/mL

gentamicin sulfate
time after initial exposure at which lysate is differentiated from control in VAE space ([2]; 10 μg/mL gentamicin): about 20 minute
antibiotic concentration at which lysate data are differentiated from control in VAE space ([2]; gentamicin dose response 0, 0.1, 0.5, 1, 10 μg/mL, an order of magnitude below the MIC): about 0.1 μg/mL
time after initial exposure at which discernable clustering appears in VAE space ([3]; 10 μg/mL gentamicin): about 10 minute
antibiotic concentration at which lysate data are differentiated from control treatment in VAE space ([3]; gentamicin dose response 0, 0.1, 0.5, 1, 10 μg/mL): ≤ 0.1 µg/mL
dose as a multiple of the MIC ([1]; 10 μg/mL gentamicin, P. aeruginosa): 10 ×MIC
resistance of P. aeruginosa (from growth curves, FIGS. 5A-5D) ([1]; P. aeruginosa): evident resistance

CC1(C)S[C@@H]2[C@H](NC(=O)C(C(=O)O)c3ccccc3)C(=O)N2[C@H]1C(=O)O (stereo partly drawn) [carbenicillin, Carbenicillin disodium salt]
growth inhibition over the time of exposure (OD600) [4]: does not exhibit any significant growth inhibition
MIC [1]: > 50 µg/mL
